In US20240268388A1, “AGRICULTURAL AND HORTICULTURAL FUNGICIDAL COMPOSITION” (NIPPON SODA CO., LTD., priority 2021, published 2024):
Read-outs that look alike come from different tables or passages of the source.

How the values were obtained:
[1] = tested on: cucumber anthracnose pathogen (Colletotrichum lagenarium); test: Fungicidal test for cucumber anthracnose (microplate, turbidity at 405 nm); assay type: cell-based; details: for inhibition at 0.025 ppm / inhibition at 0.1 ppm / inhibition at 0.4 ppm: Colletotrichum orbiculare, read-out: growth inhibition rate
Protocol: The compounds were dissolved in dimethyl sulfoxide to prepare a chemical agent solution.
A mixture of the prescribed concentration of the chemical agent solution, cucumber anthracnose pathogen (Colletotrichum lagenarium) conidia, and Vogel medium was prepared on a microplate and incubated at 20° C. in the dark for 7 days.
Each expected value was calculated using Colby's equation:
[formula] • where E represents the expected value of the growth inhibition rate (%), M represents the growth inhibition rate (%) when the component (I) is used alone, and N represents the growth inhibition rate (%) when the component (II) is used alone.

[2] = tested on: soybean rust pathogen (Phakopsora pachyrhizi); test: Soybean rust control test (leaf discs); assay type: in vivo
Protocol: Compounds of component (I) and component (II) were dissolved in dimethyl sulfoxide and diluted with water to the prescribed concentration to prepare a chemical agent solution. A mixture of the prescribed concentration of the chemical agent solution and sterile water was prepared on a microplate, and leaf discs cut from soybean leaves were floated on the microplate. Uredospores of soybean rust pathogen (Phakopsora pachyrhizi) were inoculated and incubated at 25° C. for 9 days. The area percentage of lesions was determined by observing uredospore-forming lesions on the leaf discs, and the control value was calculated. The control value was calculated by the following formula:
Control value (%)=100−{Area percentage of lesions in treatment plot/Area percentage of lesions in untreatment plot}×100.
The results are shown in Tables 8 to 18, along with the expected values calculated as below. Each expected values was calculated from the fungicidal efficacy of a single application of compound of component (I) and the fungicidal efficacy of a single application of compound of component (II) by using Colby's equation:
[formula] • where E represents the expected value of the control value for the composition containing component (I) and component (II), M represents the control value (%) when the component (I) is used alone, and N represents the control value (%) when the component (II) is used alone. When the measured control value for the composition containing component (I) and component (II) is greater than the expected value E, the composition containing component (I) and composition (II) should exert a synergistic effect.

[3] = Table 19, component (II) alone (component (I): None): Ipflufenoquin 0.000026, Iminoctadine trialbesilate 0.0032, Cyflufenamid 10, Cyprodinil 0.00013, Potassium bicarbonate 0.08, Thiophanate-methyl 0.08, Picarbutrazox 0.016, Fludioxonil 0.0032, Florylpicoxamid 0.0032, Metyltetraprole 0.08, Mefentrifluconazole 0.4 ppm
[4] = Table 20, component (II) alone (component (I): None): Ipflufenoquin 0.00064, Iminoctadine trialbesilate 0.0032, Cyflufenamid 10, Cyprodinil 0.00013, Potassium bicarbonate 0.08, Thiophanate-methyl 0.4, Picarbutrazox 0.016, Fludioxonil 0.0032, Florylpicoxamid 0.0032, Metyltetraprole 0.08, Mefentrifluconazole 0.4 ppm
[5] = Table 21, component (II) alone (component (I): None): Ipflufenoquin 0.00064, Iminoctadine trialbesilate 0.0032, Cyflufenamid 10, Cyprodinil 0.00013, Potassium bicarbonate 0.08, Thiophanate-methyl 0.4, Picarbutrazox 0.00064, Fludioxonil 0.0032, Florylpicoxamid 0.0032, Metyltetraprole 0.08, Mefentrifluconazole 0.4 ppm
[6] = Table 22, component (II) alone (component (I): None): Ipflufenoquin 0.00064, Iminoctadine trialbesilate 0.0032, Cyflufenamid 10, Cyprodinil 0.00013, Potassium bicarbonate 0.08, Thiophanate-methyl 0.4, Picarbutrazox 0.00064, Fludioxonil 0.0032, Florylpicoxamid 0.0032, Metyltetraprole 0.08, Mefentrifluconazole 0.4 ppm
[7] = Table 23, component (II) alone (component (I): None): Ipflufenoquin 0.00064, Iminoctadine trialbesilate 0.0032, Cyflufenamid 10, Cyprodinil 0.000026, Potassium bicarbonate 0.08, Thiophanate-methyl 0.4, Picarbutrazox 0.00064, Fludioxonil 0.00064, Florylpicoxamid 0.0032, Metyltetraprole 0.08, Mefentrifluconazole 0.4 ppm
[8] = Table 24, component (II) alone (component (I): None): Ipflufenoquin 0.00064, Iminoctadine trialbesilate 0.0032, Cyflufenamid 10, Cyprodinil 0.00013, Potassium bicarbonate 0.08, Thiophanate-methyl 0.4, Picarbutrazox 0.00064, Fludioxonil 0.00013, Florylpicoxamid 0.0032, Metyltetraprole 0.08, Mefentrifluconazole 0.4 ppm
[9] = Table 14, component (II) alone (component (I): None): Inpyrfluxam 0.00025, Chlorothalonil 0.006, Thiophanate-methyl 0.0001, Tebuconazole 0.000025, Trifloxystrobin 0.0001, Fluazinam 0.006, Prothioconazole 0.000025, Florylpicoxamid 0.0001, Metominostrobin 0.0004 ppm
[10] = Table 16, component (II) alone (component (I): None): Inpyrfluxam 0.000025, Chlorothalonil 0.006, Thiophanate-methyl 0.0001, Tebuconazole 0.000025, Trifloxystrobin 0.0001, Fluazinam 0.006, Prothioconazole 0.000025, Florylpicoxamid 0.0001, Metominostrobin 0.0004 ppm
[11] = Table 17, component (II) alone (component (I): None): Inpyrfluxam 0.000026, Chlorothalonil 0.02, Thiophanate-methyl 0.0004, Tebuconazole 0.0001, Trifloxystrobin 0.0001, Fluazinam 0.006, Prothioconazole 0.000025, Florylpicoxamid 0.0001, Metominostrobin 0.0004 ppm

`Cc1cc(C2CC2)nc(Nc2ccccc2)n1` [Cyprodinil] showed a growth inhibition rate [1, 3] of 12%, a growth inhibition rate [1, 4] of 12% and a growth inhibition rate [1, 5] of 12%. For the same molecule, the growth inhibition rate [1, 6] was 12%, the growth inhibition rate [1, 7] was 0% and the growth inhibition rate [1, 8] was 12%.
`CCCCCCCCCCCCc1ccc(S(=O)(=O)O)cc1.CCCCCCCCCCCCc1ccc(S(=O)(=O)O)cc1.CCCCCCCCCCCCc1ccc(S(=O)(=O)O)cc1.NC(N)=NCCCCCCCCNCCCCCCCCN=C(N)N` [Iminoctadine trialbesilate] showed a growth inhibition rate [1, 3] of 22%, a growth inhibition rate [1, 4] of 22% and a growth inhibition rate [1, 5] of 22%. For the same molecule, the growth inhibition rate [1, 6] was 22%, the growth inhibition rate [1, 7] was 22% and the growth inhibition rate [1, 8] was 22%.
Work on `CC(C)ON=C1CCN(C(=O)Cc2ccc(-c3noc(C(F)(F)F)n3)cc2)CC1` [Compound 11] yielded a control value ([2]; Compound 11 alone, 0.0063 ppm) of 6%, a control value ([2]; Compound 11 alone, 0.025 ppm) of 15% and a control value ([2]; Compound 11 alone, 0.1 ppm) of 52%. For the same molecule, the control value ([2]; Compound 11 alone, 0.4 ppm) was 70% and the control value ([2]; Compound 11 alone, 1.6 ppm) was 84%.
`COC(=O)NC(=S)Nc1ccccc1NC(=S)NC(=O)OC` [Thiophanate-methyl] gave a growth inhibition rate [1, 3] of 0%, a growth inhibition rate [1, 4] of 0% and a growth inhibition rate [1, 5] of 0%. It also gave a growth inhibition rate [1, 6] of 0%, a growth inhibition rate [1, 7] of 0% and a growth inhibition rate [1, 8] of 0%. For the same molecule, the control value [2, 9] was 27%, the control value [2, 10] was 27% and the control value [2, 11] was 66%.
`Cc1cccc(-n2nnn(C)c2=O)c1COc1ccn(-c2ccc(Cl)cc2)n1` [Metyltetraprole] showed a growth inhibition rate [1, 3] of 77%, a growth inhibition rate [1, 4] of 77% and a growth inhibition rate [1, 5] of 77%. The growth inhibition rate [1, 6] was 77%, the growth inhibition rate [1, 7] was 77% and the growth inhibition rate [1, 8] was 77%.
`O=C([O-])O.[K+]` [Potassium bicarbonate] showed a growth inhibition rate [1, 3] of 53%, a growth inhibition rate [1, 4] of 53% and a growth inhibition rate [1, 5] of 53%. The growth inhibition rate [1, 6] was 53%, the growth inhibition rate [1, 7] was 53% and the growth inhibition rate [1, 8] was 53%.
With `Cn1nnnc1/C(=N\OCc1cccc(NC(=O)OC(C)(C)C)n1)c1ccccc1` [Picarbutrazox] the growth inhibition rate [1, 3] was 87%, the growth inhibition rate [1, 4] was 87% and the growth inhibition rate [1, 5] was 0%. The growth inhibition rate [1, 6] was 0%, the growth inhibition rate [1, 7] was 0% and the growth inhibition rate [1, 8] was 0%.
`CON=C1CCN(C(=O)Cc2ccc(-c3noc(C(F)(F)F)n3)cc2)CC1` [Compound 9] was tested, and the inhibition at 0.025 ppm ([1]; Compound 9 alone) was 42%, the inhibition at 0.1 ppm ([1]; Compound 9 alone) was 49% and the inhibition at 0.4 ppm ([1]; Compound 9 alone) was 83%. For the same molecule, the control value ([2]; Compound 9 alone, 0.0063 ppm) was 13%, the control value ([2]; Compound 9 alone, 0.025 ppm) was 34% and the control value ([2]; Compound 9 alone, 0.1 ppm) was 49%. The control value ([2]; Compound 9 alone, 0.4 ppm) was 96%.
For `O=C(Cc1ccc(-c2noc(C(F)(F)F)n2)cc1)N1CCC(=NO)CC1` [Compound 12], the control value ([2]; Compound 12 alone, 0.0063 ppm) was 21%, the control value ([2]; Compound 12 alone, 0.025 ppm) was 33% and the control value ([2]; Compound 12 alone, 0.1 ppm) was 64%. The control value ([2]; Compound 12 alone, 0.4 ppm) was 92%.
With `CNC(=O)/C(=N/OC)c1ccccc1Oc1ccccc1` [Metominostrobin] the control value [2, 9] was 27%, the control value [2, 10] was 27% and the control value [2, 11] was 27%.
For `CC(O)(Cn1cncn1)c1ccc(Oc2ccc(Cl)cc2)cc1C(F)(F)F` (stereo not drawn) [Mefentrifluconazole], the growth inhibition rate [1, 3] was 64%, the growth inhibition rate [1, 4] was 64% and the growth inhibition rate [1, 5] was 64%. It also gave a growth inhibition rate [1, 6] of 64%, a growth inhibition rate [1, 7] of 64% and a growth inhibition rate [1, 8] of 64%.
Molecule `O=C(Cc1ccc(-c2noc(C(F)(F)F)n2)cc1)N1CCC(=NOCC(F)(F)F)CC1` [Compound 10] has an inhibition at 0.025 ppm ([1]; Compound 10 alone) of 63%, an inhibition at 0.1 ppm ([1]; Compound 10 alone) of 52% and an inhibition at 0.4 ppm ([1]; Compound 10 alone) of 96%. For the same molecule, the control value ([2]; Compound 10 alone, 0.0063 ppm) was 0%, the control value ([2]; Compound 10 alone, 0.025 ppm) was 27% and the control value ([2]; Compound 10 alone, 0.1 ppm) was 42%. It also gave a control value ([2]; Compound 10 alone, 0.4 ppm) of 66% and a control value ([2]; Compound 10 alone, 1.6 ppm) of 94%.
For `CC(C)ON=C1CN(C(=O)Cc2ccc(-c3noc(C(F)(F)F)n3)cc2)C1` [Compound 7], the control value ([2]; component (I) alone, 0.0063 ppm) was 16%, the control value ([2]; component (I) alone, 0.025 ppm) was 32% and the control value ([2]; component (I) alone, 0.1 ppm) was 64%. For the same molecule, the control value ([2]; component (I) alone, 0.4 ppm) was 94%.
`CCON=C1CCN(C(=O)Cc2ccc(-c3noc(C(F)(F)F)n3)cc2)CC1` [Compound 8] showed an inhibition at 0.025 ppm ([1]; Compound 8 alone) of 58%, an inhibition at 0.1 ppm ([1]; Compound 8 alone) of 55% and an inhibition at 0.4 ppm ([1]; Compound 8 alone) of 85%. The control value ([2]; Compound 8 alone, 0.0063 ppm) was 10%, the control value ([2]; Compound 8 alone, 0.025 ppm) was 16% and the control value ([2]; Compound 8 alone, 0.1 ppm) was 32%. It also gave a control value ([2]; Compound 8 alone, 0.4 ppm) of 75% and a control value ([2]; Compound 8 alone, 1.6 ppm) of 93%.
Molecule `O=C(Cc1ccccc1)N/C(=N\OCC1CC1)c1c(C(F)(F)F)ccc(F)c1F` [Cyflufenamid] has a growth inhibition rate [1, 3] of 64%, a growth inhibition rate [1, 4] of 64% and a growth inhibition rate [1, 5] of 64%. The growth inhibition rate [1, 6] was 64%, the growth inhibition rate [1, 7] was 64% and the growth inhibition rate [1, 8] was 64%.
For `N#Cc1c[nH]cc1-c1cccc2c1OC(F)(F)O2` [Fludioxonil], the growth inhibition rate [1, 3] was 64%, the growth inhibition rate [1, 4] was 64% and the growth inhibition rate [1, 5] was 64%. For the same molecule, the growth inhibition rate [1, 6] was 64%, the growth inhibition rate [1, 7] was 0% and the growth inhibition rate [1, 8] was 0%.
